From patent US12268777B2, “Compositions and methods for treating eosinophilic disorders” (The Regents of the University of California, priority 2019, dated 2025)

How the values were obtained:
[1] = test system: EoE-derived primary esophageal fibroblasts; experiment: Western immunoblot of pro-fibrotic protein expression in EoE-derived esophageal fibroblasts; assay type: cell-based, human
Procedure: Reagents, human esophageal tissues, and primary human esophageal fibroblast isolation TGF-β1 (5 ng/mL; R&D Systems, Minneapolis, MN), rosiglitazone (20 μM; Abcam, Boston, MA), pioglitazone (20 μM; Sigma-Aldrich, St. Louis, MO), budesonide (0.1 μM; St. Louis, MO), and IL-4 (10 ng/mL; R&D Systems, Minneapolis, MN) were used in cell culture experiments. […] Active EoE was defined as greater than or equal to 15 eosinophils per hpf. Human organ transplant donor esophagi served as normal controls and were provided by the National Disease Research Interchange and the Arkansas Regional Organ Recovery Agency Control. […]
Adherent cells were washed with ice-cold phosphate-buffered saline containing 1 mM sodium orthovanadate (Na3VO4) and lysed in ice-cold RIPA lysis buffer freshly prepared and supplemented with 1 mM Na3VO4, complete protease inhibitor cocktail, and 2 mM phenylmethylsulfonyl fluoride. […] Equivalent amounts of total proteins were loaded into each well and electrophoresed on NuPAGE 4-12% Bis-Tris gels (Life Technologies, Grand Island, NY), transferred to polyvinylidene difluoride membranes, blocked with 5% bovine serum albumin, incubated with primary antibodies overnight (1:1,000) at 4° C., detected using species-appropriate horseradish peroxidase-conjugated secondary antibodies, and quantified as previously described (Rawson et al., J. Allergy Clin. Immunol., 138:791-800, 2016).

[2] = test system: nonalcoholic steatohepatitis (NASH); conditions: compared to placebo; cited from earlier work
[3] = in vivo; cited from earlier work
[4] = test system: normal esophageal fibroblasts; experiment: Western immunoblot of pro-fibrotic protein expression in normal esophageal fibroblasts; assay type: cell-based, human; conditions: 20 μM, N=3
Procedure: Cell culture and stimulation.
Western immunoblot analysis. Adherent cells were washed with ice-cold phosphate-buffered saline containing 1 mM sodium orthovanadate (Na3VO4) and lysed in ice-cold RIPA lysis buffer freshly prepared and supplemented with 1 mM Na3VO4, complete protease inhibitor cocktail, and 2 mM phenylmethylsulfonyl fluoride. Whole cell lysates were centrifuged at 14,000 g for 15 minutes at 4° C.

[5] = test system: EoE-derived primary esophageal fibroblasts; experiment: qPCR of pro-fibrotic gene expression in EoE-derived esophageal fibroblasts stimulated with TGF-β1; conditions: at the concentrations used, up to 20 μM
Procedure: Reagents, human esophageal tissues, and primary human esophageal fibroblast isolation TGF-β1 (5 ng/mL; R&D Systems, Minneapolis, MN), rosiglitazone (20 μM; Abcam, Boston, MA), pioglitazone (20 μM; Sigma-Aldrich, St. Louis, MO), budesonide (0.1 μM; St. Louis, MO), and IL-4 (10 ng/mL; R&D Systems, Minneapolis, MN) were used in cell culture experiments.
Cell culture and stimulation. Human esophageal fibroblast cells were matched as closely as possible for sex, race, and passage. At sub-confluence, cells were serum starved overnight and treated with a TZD, budesonide, a combination, or vehicle for 2-3 hours followed by incubation with TGF-β1 or vehicle.
Preparation of total RNA and cDNA and quantitative PCR. Total RNA from fibroblast cultures was extracted using RNA STAT-60 (Tel-Test, Inc., Friendswood, TX) protocol, and oligo(dT)-primed cDNA was synthesized as previously described using the Qiagen RT-PCR kit and manufacturer's instructions. Quantitative real-time PCR (qPCR) primers are listed in Table 3; qPCR was carried out as previously described using the appropriate gene-specific primers, and relative gene expression was calculated using the method, with glyceraldehyde 3-phosphate dehydrogenase (gapdh) as the housekeeping gene (Rawson et al., J. Allergy Clin. Immunol., 138:791-800, 2016).

SMILES	TGFβ1-induced protein expression of collagen-1α1 ([1]; EoE fibroblasts from 2 patients, budesonide 0.1 μM)	drug-related adverse events [2]	tolerability [2]	cardiac effect [3]	TGF-β1-induced protein expression of collagen-1α1 [4]	TGF-β1-induced protein expression of α-sma [4]	basal protein expression of α-sma ([1]; EoE fibroblasts, 20 μM)	toxicity (housekeeper gene expression, responses in normal fibroblasts) [5]
CCCC1O[C@@H]2C[C@H]3[C@@H]4CCC5=CC(=O)C=C[C@]5(C)[C@H]4[C@@H](O)C[C@]3(C)[C@]2(C(=O)CO)O1 (stereo partly drawn) [budesonide, 16,17-(butylidenebis(oxy))-11,21-dihydroxy-, (11-β,16-α)-pregna-1,4-diene-3,20-dione]	no effects	–	–	–	–	–	–	–
CCc1ccc(CCOc2ccc(CC3SC(=O)NC3=O)cc2)nc1 (stereo not drawn) [pioglitazone]	–	no major drug-related adverse events	well tolerated	cardioprotective effect	–	–	–	–
CN(CCOc1ccc(CC2SC(=O)NC2=O)cc1)c1ccccn1 (stereo not drawn) [rosiglitazone]	–	–	–	myocardial infarction risk was subsequently disproven	did not inhibit	did not inhibit	did not inhibit	not due to toxicity
